Like-named read-outs stand apart in the source and are kept apart here.
Experiments:
Type in all cases: cell-based
[1] = test system: murine leukemia WEHI-3 cells; experiment: CCK8 growth inhibition, WEHI-3; conditions: Mus musculus, CCK8 method, read-out: IC50 of inhibitory activity on tumor cell growth, WEHI-3
[2] = test system: murine spleen lymphocytes; experiment: Cytokine stimulation of murine spleen lymphocytes, ELISA; conditions: mouse immune cells (spleen lymphocytes), 24 hrs, ELISA; for EC50: Lymphocyte
Method: The stimulating effect of a series of GY compounds or drugs on murine spleen lymphocytes was detected by ELISA.
6-week-old Balb/c mice were sacrificed by cervical dislocation, spleens were taken under aseptic conditions. A 1 mL sterile syringe and a 200 mesh cell strainer were adopted to quickly grind and disperse the spleen into individual cells in 4 mL of a murine lymphocyte separation solution (Dakko's, 7211011). A resulting cell homogenate was transferred to a 15 mL centrifuge tube, then 1 mL of a RPMI 1640 medium (Hyclone, SH30809.01) was slowly added. Spleen lymphocytes were separated by a density gradient centrifugation method (800×g, 30 min), washed, red blood cells therein were lysed, such that a dispersed spleen lymphocyte suspension was obtained. Cells were counted by a hemocytometer, to calculate the cell concentration. A RPMI 1640 complete medium was adopted to adjust the cell suspension to a concentration of 1×10^6/ml/well, and the cells were then plated on a 24-well cell culture plate (Corning, 3524).
Murine spleen lymphocytes were stimulated according to the gradient concentrations of the series of GY compounds or drugs, and incubated in a 37° C., 5% carbon dioxide incubator for 24 hrs.
• (1) Coating: a Capture antibody (primary antibody, purchased from Invitrogen) was diluted with a 1×Coating Buffer (coating buffer, purchased from Invitrogen) to a recommended concentration, and 100 μL of a resulting diluted solution was added to each well of a 96-well microtiter plate, the plate was sealed with a sealing film at 4° C. overnight. • (2) Washing: a liquid in each well was discarded, then 300 μL of a PBST working solution was added to each well and kept for 1 min, thereafter, the liquid therein was discarded. The washing process was repeated 3 times. • (3) Blocking: 200 μL of a blocking solution was added to each well. The plate was sealed with a sealing film, and placed on a shaker and incubated at room temperature for 1 hr, then washed and patted to be dry. • (4) Sample incubation: a sample was collected and centrifuged to collect a supernatant. Standards, samples, negative controls, and blank controls were provided in the 96-well microtiter plate, and each concentration or sample were provided with 2 replicates. 100 μL of a standard or sample was added to each well, thereafter, the plate was sealed with a sealing film, incubated on a shaker at room temperature for 1 hr or overnight at 4° C., then washed and pated to be dry. • (5) Secondary antibody incubation: the detection antibody (secondary antibody, purchased from Invitrogen) was diluted to a recommended concentration with a dilution buffer, 100 μL of a secondary antibody was added to each well. After being sealed with a sealing film, the plate was incubated on a shaker at room temperature for 1 hr, then washed and patted to be dry. • (6) Avidin-HRP incubation: Avidin-HRP (horseradish peroxidase marker, purchased from Invitrogen) was diluted to the recommended concentration with a dilution buffer, 100 μL of Avidin-HRP was added to each well. After being sealed with a sealing film, the plate was placed on a shaker and incubated at room temperature for 30 mins, washed 5-7 times by the process of step 2), and patted to be dry. • (7) TMB color development: 100 μL of a TMB color development solution (purchased from Invitrogen) was added to each well, for carrying out reaction for 15 mins at room temperature in the dark. • (8) Stopping reaction: 50 μL of 1M H2SO4 solution was added to each well. • (9) Reading an absorbance value by a microplate reader: the OD value at 450 nm wavelength was read. A standard curve and a parameter nonlinear regression equation were drawn, and a sample concentration was calculated according to the obtained formula.

[3] = test system: human leukemia HL-60 cells; experiment: CCK8 growth inhibition, HL60; conditions: read-out: IC50 of inhibitory activity on tumor cell growth, HL60
[4] = test system: human lymphoma Raji cells; experiment: CCK8 growth inhibition, Raji; conditions: CCK8 method, read-out: IC50 of inhibitory activity on tumor cell growth, Raji
TLR7 = target: T1, TLR7 (Homo sapiens, UniProt Q9NYK1); experiment: Detection of TLR7 activation (HEK-Blue Detection), SEAP reporter; conditions: HEK-Blue hTLR7 cells, 6-16 hrs, absorbance 650 nm; read-out: TLR7(EC50/μM)
T1 construct: host or cells: HEK-Blue hTLR7 cells (HEK293-derived SEAP reporter line)
T1 sequence (Q9NYK1 27-1049): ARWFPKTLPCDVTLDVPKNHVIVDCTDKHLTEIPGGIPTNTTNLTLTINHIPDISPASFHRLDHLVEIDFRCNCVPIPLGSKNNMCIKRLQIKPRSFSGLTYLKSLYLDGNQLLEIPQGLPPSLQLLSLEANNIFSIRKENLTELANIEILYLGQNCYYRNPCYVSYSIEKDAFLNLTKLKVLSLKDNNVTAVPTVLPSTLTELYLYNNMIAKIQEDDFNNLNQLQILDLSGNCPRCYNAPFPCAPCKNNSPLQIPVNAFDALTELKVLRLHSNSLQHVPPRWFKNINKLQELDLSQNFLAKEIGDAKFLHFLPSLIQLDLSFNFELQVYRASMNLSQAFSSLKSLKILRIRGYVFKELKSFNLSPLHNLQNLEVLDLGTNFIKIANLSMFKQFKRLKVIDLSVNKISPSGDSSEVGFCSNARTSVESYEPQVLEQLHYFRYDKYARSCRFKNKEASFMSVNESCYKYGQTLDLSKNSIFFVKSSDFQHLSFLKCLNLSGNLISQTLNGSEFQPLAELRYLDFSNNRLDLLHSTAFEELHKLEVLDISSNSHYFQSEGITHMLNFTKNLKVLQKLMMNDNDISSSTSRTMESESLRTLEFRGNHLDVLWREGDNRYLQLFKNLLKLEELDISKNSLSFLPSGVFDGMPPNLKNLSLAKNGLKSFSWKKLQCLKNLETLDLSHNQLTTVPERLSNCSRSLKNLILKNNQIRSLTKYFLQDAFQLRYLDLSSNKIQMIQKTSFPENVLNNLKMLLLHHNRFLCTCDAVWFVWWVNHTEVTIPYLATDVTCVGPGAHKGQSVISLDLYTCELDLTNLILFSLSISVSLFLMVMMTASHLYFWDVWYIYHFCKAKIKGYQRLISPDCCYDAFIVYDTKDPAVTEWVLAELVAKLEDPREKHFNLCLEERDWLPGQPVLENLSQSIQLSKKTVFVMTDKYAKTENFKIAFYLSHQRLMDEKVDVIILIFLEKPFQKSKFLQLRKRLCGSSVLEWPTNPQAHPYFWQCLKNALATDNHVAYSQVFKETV
Method: HEK-Blue™hTLR7 cells (purchased from InvivoGen) in a logarithmic growth phase were taken, with a growth medium (Gibco, C11995500BT, Invivo Gen, ant-nr) discarded. The cells were gently rinsed twice by an appropriate amount of 37° C. PBS (Hyclone, SH30256.01), a rinsed PBS was discarded. Thereafter, the cells were added with 2-5 mL of 37° C. PBS, incubated for 1 to 2 minutes, and then scraped by a cell scraper and gently pipetted to be dispersed into a single cell suspension. A hemocytometer was adopted to count the cells and a cell concentration was calculated. After that, a HEK-Blue™ Detection solution (purchased from Invivo Gen) was adopted to adjust the cell concentration of the cell suspension to 2.5×10^4/180 μL per well for cell plating on a 96-well cell culture plate. The HEK-Blue™hTLR7 cells were stimulated according to the designed series of GY compound or drug concentrations (0.01 μM, 0.1 μM, 1 μM, 5 μM, 15 μM, and 30 μM), with 3 replicate wells for each concentration, and were incubated at 37° C., 5% carbon dioxide for 6-16 hrs. After the incubation, the absorbance value was read at 650 nm with a full-wavelength microplate reader (BioTek-Epoch), as listed in Table 2.
Relative induction=(average OD value of experimental group−average OD value of negative control group)/average OD value of negative control group.
Specific details for the above method may be referred to https: • //www.invivogen.com/hek-blue-htlr7; https://www.invivogen.com/sites/default/files/invivogen/products/files/hek_blue_htlr7_tds.pdf.

[5] = test system: human lymphoma Daudi B cells; experiment: CCK8 growth inhibition, Daudi B; conditions: CCK8 method, read-out: IC50 of inhibitory activity on tumor cell growth, Daudi B
A549 = experiment: CCK8 growth inhibition, A549; conditions: Homo sapiens, CCK8 method, read-out: IC50 of inhibitory activity on tumor cell growth, A549
MB231 = experiment: CCK8 growth inhibition, MB231; conditions: CCK8 method; read-out: IC50 of inhibitory activity on tumor cell growth, MB231
[6] = test system: Murine breast cancer 4T1 cells; experiment: CCK8 growth inhibition, 4T1; conditions: Mus musculus, CCK8 method, 24 hrs (or 36, 72 hrs), read-out: IC50 of inhibitory activity on tumor cell growth, 4T1
Method: Murine breast cancer 4T1 cells (Kailian Biotech, KG338) in a logarithmic growth phase were selected and washed with PBS, digested with 0.25% trypsin (including EDTA), stopped digestion with a DMEM complete medium, then centrifuged, and resuspended to form a suspension of 4T1 single cells. Cells were counted using a hemocytometer and a cell concentration was calculated. A DMEM complete medium was used to adjust the cell suspension to a target concentration, and thereafter, the cells were plated on a 96-well cell culture plate according to 4×10^3/100 μL per well. After adherering to the wall, the 4T1 cells were stimulated according to the designed concentration gradients of the series of GY compounds or drugs, with each concentration being provided with 3 replicate holes. The 96-well cell culture plate with 4T1 cells seeded and dosing was placed in the cell incubator, and incubated at 37° C., 5% carbon dioxide for 24 hrs (or 36, 72 hrs). After the incubation time was over, 10 μL of CCK8 reagent was added to each well and incubated for 1-2 hrs at 37° C. A full-wavelength microplate reader was adopted to test an OD value at 450 nm wavelength.
CCK8 calculation formula is as follows: • Cell survival rate (100%)=[…]/(Ac−Ab)×100% • As: Absorbance of wells containing cells, CCK8 solution, and drug solution • Ac: Absorbance of wells containing cells and CCK8 solution, and no drug solution • Ab: Absorbance of wells containing CCK8 solution, no cells, and no drug solution
Cell growth inhibition rate (%)=1−((OD value of experimental group−OD value of blank group)/(OD value of control group−OD value of blank group)×100%).

[7] = test system: human leukemia K562 cells; experiment: CCK8 growth inhibition, K562; conditions: CCK8 method, read-out: IC50 of inhibitory activity on tumor cell growth, K562
HEK293T cells = experiment: CCK8 growth inhibition, HEK-293T; conditions: Homo sapiens, CCK8 method, read-out: IC50 of inhibitory activity on cell growth, HEK-293T
[8] = test system: murine colon cancer CT-26 cells; experiment: CCK8 growth inhibition, CT26; conditions: Mus musculus, CCK8 method, read-out: IC50 of inhibitory activity on tumor cell growth, CT26
black melanoma B16 cells = experiment: CCK8 growth inhibition, B16; conditions: Mus musculus, CCK8 method, read-out: IC50 of inhibitory activity on tumor cell growth, B16
[9] = read-out: TNF-alpha EC50 of cytokine stimulating activity
[10] = Homo sapiens, HL-60, CCK8 method

| Structure (SMILES) | IC50 [1] [µM] | EC50 [2, 9] [µM] | IFN-gamma EC50 of cytokine stimulating activity [2] | EC50 (TLR7) [µM] | IC50 (A549) [µM] | IC50 [3, 10] [µM] | IC50 [6] [µM] | further results |
| --- | --- | --- | --- | --- | --- | --- | --- | --- |
| C=C(CC(=O)NCCOCCOCCOCCn1cc(Cn2c(O)nc3c(N)nc(OCCCC)nc32)nn1)C(=O)N1CCC(C2CCNc3c(C(N)=O)c(-c4ccc(Oc5ccccc5)cc4)nn32)CC1 (single isomer, unassigned) [GY132] | 14.7 | 2.15 | No fit | 5.42 | – | – | – | IL-6 EC50 of cytokine stimulating activity [2]: No fit; IC50 ([3]; CCK8 method): 5.13 µM; IC50 [4]: 2.03 µM; IC50 [5]: 5.36 µM |
| CCCCOc1nc(N)c2nc(O)n(Cc3cn(CCOCCOCCOCC(=O)Nc4cc(Nc5nccc(-c6cn(C)c7ccccc67)n5)c(OC)cc4N(C)CCN(C)C)nn3)c2n1 [GY104] | – | 34.7 | No fit | – | 17.1 | – | – | EC50 ([2]; read-out: IL-6 EC50 of cytokine stimulating activity): 27.7 µM |
| CCCCOc1nc(N)c2nc(O)n(Cc3cn(CCOCCOCCOCCN4CCN(CCCNC(=O)CC5N=C(c6ccc(Cl)cc6)c6c(sc(C)c6C)-n6c(C)nnc65)CC4)nn3)c2n1 (stereo not shown) [GY118] | – | – | – | – | 16.6 | 15.1 | 14.7 | IC50 (MB231): 5.8 µM |
| C=C(CC(=O)NCCOCCOCCOCCn1cc(Cn2c(O)nc3c(N)nc(OCCCC)nc32)nn1)C(=O)N1CCC[C@@H](n2nc(-c3ccc(Oc4ccccc4)cc3)c3c(N)ncnc32)C1 [GY131] | 7.38 | – | – | 4.97 | – | 92.1 | 2.86 | IC50 [7]: 92.1 µM; IC50 ([4]; Homo sapiens, Raji): 10.4 µM; IC50 (HEK293T cells): 25.1 µM; IC50 [8]: 166 µM; IC50 (black melanoma B16 cells): 40.7 µM; IC50 ([5]; Homo sapiens, Daudi): 14.1 µM |
| CCCCOc1nc(N)c2nc(O)n(Cc3cn(CCOCCOCCOCC(=O)N4CCN(C/C=C/C(=O)N5CCCC(n6nc(-c7ccc(Oc8ccccc8)cc7)c7c(N)ncnc76)C5)CC4)nn3)c2n1 (stereo not shown) [GY138] | 47.6 | – | – | – | – | – | – | – |
| C=C(CC(=O)N1CCC(C2CCN=C3C(C(N)=O)=C(c4ccc(Oc5ccccc5)cc4)NN32)CC1)C(=O)NCCOCCOCCOCCn1cc(Cn2c(O)nc3c(N)nc(OCCCC)nc32)nn1 (stereo not shown) [GY150] | 22.3 | – | – | – | – | – | – | – |

Source: US12440571B2, “Immune agonists” (SHENZHEN UNIVERSITY, priority 2020, dated 2025)
